Experiments:
IL-17 = IL-17 protein in culture supernatant of RA-patient synovial cells; assay type: cell-based, human; conditions: increasing concentrations
SOD1 G93A mice = test: SOD1 G93A mouse model of ALS, motor symptoms and neuroscore; assay type: in vivo; conditions: 50 mg/kg daily oral in gel from 21 days post-natal
Text: Animals. The ALS mouse model is the SOD1 G93A (Gurney et al. Science 1994). Mutations in the SOD1 gene represent about 20% of the mutations in human familiar forms of ALS. Mice with multiple human transgenes with the G93A mutation in the SOD1 gene develop a progressive muscle paralysis and a loss of spinal motor neurons as in human patients. We used the high expressor lines (Jackson Labs #002726 B6SJL-Tg(SOD1*G93A)1 Gur/J) that contains at least 15 copies of the human transgene. SOD1 G93A males are crossed with B6/SJL females (Janvier Labs #SH-B6SJL-F1; hybrid model B6SJLF1/JRj). Genotyping allows us to identify the transgenic animals in the litter.
Symptoms progression is assessed using a neuroscore grid as in Hatzipetros et al. JoVE 2015. Mice are euthanized when they are transitioning from neuroscore 2 to neuroscore 3 (full paralysis of one hindlimb). This transition happens about 120-130 days post-natal in our breeding conditions and in the absence of the 2,4-D treatment. Non transgenic littermates are used as control animals.
Chronic administration of 2,4-D in mice. […] Daily delivery of the drug for a long time period (about 100 days) is not compatible with IP injections for ethics considerations and also because of the infection risk. We then rely on oral administration in a gel using a method modified from Lei Zhang, Star Protocol 2021. Briefly, the gel is produced by mixing alimentary gelatin (8%, Vahiné) in a 2% sucralose solution (Myprotein, zero calory, no flavor) and by heating this mixture at 60° C. for 20-30 minutes until clarification. An artificial flavor, for instance “cheese flavor” (Arôme Alimentaire Emmental 58 ml Cuisineaddict), 2 microliters/milliliter), may be added to this preparation along with some kibble grinds to powder (the same kibble as the one used in the house facility for ordinary diet) for improving palatability. This mixture is then aliquoted in individual daily portions of 315 microliters. 1 to 2 mg of 2,4-D (depending on the mouse body weight, 50 mg of 2,4-D per kg of mouse body weight) is added to each portion while the mixture is still warm (2,4-D is not added in the vehicle portions given to untreated animals). This mixture solidifies in a jelly form upon cooling. The gel can be kept in a fridge (4° C.) for 6 days. We usually have 4 mice (males or females) per cage. To feed the mice with 2,4-D we remove the ordinary kibbles (sometime 4 hours before) and we physically isolated each mouse in a corner of the cage with a plexiglass cross placed in the cage to separate four compartments. One portion jelly is placed at the bottom of each compartment until the mouse has eaten it. In the case the mouse has not eaten the full portion after 3 hours, we evaluate how much was taken by the mouse. […]

IL-10 = test: MSU-induced IL-10 in knee joint tissue (multiplex microassay); assay type: in vivo, mouse; conditions: 2,4-D 100 mg/kg, DEX 0.5 mg/kg
Description: Mice (six per group) were treated with 2,4-D (100 mg/kg or 20 mg/kg, i.p.), CLC (1 mg/kg or 0.2 mg/kg, i.p.), DEX (0.5 mg/kg or 0.1 mg/kg, i.p.), or vehicle (20% polyoxyethylenesorbitan monooleate (Tween 80) plus PBS) 30 min before intra-articular stimulus with MSU (100 μg/10 μL, i.a.). Six mice with intra-articular injection with PBS alone served as a negative control.
Induction of MSU-Induced Knee Joint Inflammation. Male ICR (CD-1) mice (35-45 g, 10-12 weeks) were purchased from VitalRiver Inc (Beijing, China) and were kept in an animal care facility under controlled temperature of 21±1° C., humidity, and on a light/dark cycle, with ad libitum access to water and standard laboratory chow diet. Animal care and handling procedures were approved by the Animal Ethics Committee of GZUCM (Guangzhou University of Chinese Medicine). All efforts were made to minimize animal suffering and to reduce the number of animals used. Joint inflammation was induced by the intra-articular (i.a.) administration of MSU (200 μg/20 μl) into the right and left knee joints of mice under inhaled 3% isoflurane anesthesia. Control animals received an injection (i.a.) of sterile PBS (20 μL).
Cytokine Measurement. Mice were anesthetized and sacrificed. Knee joints were collected and frozen in liquid nitrogen. Samples were then homogenized in 500 μl of buffer containing protease inhibitors, centrifuged (3600 rpm, 4° C., 15 min) and supernatants were used to determine Th1/Th2/Th17 cytokine levels using a multiplex microassay (Qantibody® mouse TH17 Array 1 kit, Cat. No.: QAM-TH17-1; RayBiotech, Norcross, GA). Results were expressed as picograms (pg) of cytokine/mg of tissue.
Statistical Analysis. […] For in vitro experiments, microassays were performed in quadruplicate. p<0.05 was considered significant (*p<0.05, **p<0.01, ***p<0.001).

COc1cc(O)c(OC)c(O)c1C(=O)/C=C/c1ccccc1 [2,4-D, 2′,4′-dihydroxy-3′,6′-dimethoxychalcone]
concentration of IL-17 protein in the culture supernatant (IL-17): significantly inhibited | neuroscore progression (from 0 to 3) (SOD1 G93A mice): tends to slow down | time at which neuroscore 3 is reached (survival time) (SOD1 G93A mice): tends to be delayed | time at which the axial tonus is lost, compared with vehicle (SOD1 G93A mice): significantly extends | time at which the full hindlimb extension is lost, compared with vehicle (SOD1 G93A mice): significantly extends | decrease of IL-10 in knee joint tissue (IL-10): 1.7 fold
